Values after ≈ are worked out from the molar mass of the structure shown.
What was measured:
[1] = Glibenclamide particle size distribution; format: physicochemical; details: glibenclamide batch
Experimental: In-vivo bioavailability tests were performed with tablets prepared as disclosed in example 2, using two batches of glibenclamide. The two batches have the following 10 to 90% particle size range:
The distribution of the particle size of batches A and B are illustrated in FIG. 1.
Data from the studies with metformin hydrochloride/glibenclamide tablets formulated with glibenclamide of different particle size characteristics allowed the development of a correlation between drug particle size and the in vivo performance.

[2] = in water at 25° C.; cited from earlier work

Row | Structure (SMILES) | 10 to 90% particle size range [1] | solubility [2] [µg/mL]
1 | COc1ccc(Cl)cc1C(=O)NCCc1ccc(S(=O)(=O)NC(=O)NC2CCCCC2)cc1 [batch A, glibenclamide] | 3.47-38.08 μm | –
2 | COc1ccc(Cl)cc1C(=O)NCCc1ccc(S(=O)(=O)NC(=O)NC2CCCCC2)cc1 [batch B, glibenclamide] | 15.63-91.6 μm | –
3 | COc1ccc(Cl)cc1C(=O)NCCc1ccc(S(=O)(=O)NC(=O)NC2CCCCC2)cc1 [glibenclamide] | – | 100 (≈ 202 µM)
